Measured values published in US20080118529A1 (priority 2005, published 2008).

Columns and labels:
tPA = type: biochemical, human
factor XII [1] = molecular target: T1, factor XII (Homo sapiens, UniProt P00748); type: biochemical
U937 monocytes = type: cell-based, human; settings: 1 h
factor XII [2] = molecular target: T1, factor XII; type: biochemical; remark: listed apart in the source
nOVA = test system: nOVA; design: species or system Balb/c mice; settings: mouse, in vivo
OVA = test system: OVA; design: species or system chicken; settings: in vivo
DOVA = test system: DOVA; design: species or system chicken; settings: in vivo

T1 sequence (P00748 20-615): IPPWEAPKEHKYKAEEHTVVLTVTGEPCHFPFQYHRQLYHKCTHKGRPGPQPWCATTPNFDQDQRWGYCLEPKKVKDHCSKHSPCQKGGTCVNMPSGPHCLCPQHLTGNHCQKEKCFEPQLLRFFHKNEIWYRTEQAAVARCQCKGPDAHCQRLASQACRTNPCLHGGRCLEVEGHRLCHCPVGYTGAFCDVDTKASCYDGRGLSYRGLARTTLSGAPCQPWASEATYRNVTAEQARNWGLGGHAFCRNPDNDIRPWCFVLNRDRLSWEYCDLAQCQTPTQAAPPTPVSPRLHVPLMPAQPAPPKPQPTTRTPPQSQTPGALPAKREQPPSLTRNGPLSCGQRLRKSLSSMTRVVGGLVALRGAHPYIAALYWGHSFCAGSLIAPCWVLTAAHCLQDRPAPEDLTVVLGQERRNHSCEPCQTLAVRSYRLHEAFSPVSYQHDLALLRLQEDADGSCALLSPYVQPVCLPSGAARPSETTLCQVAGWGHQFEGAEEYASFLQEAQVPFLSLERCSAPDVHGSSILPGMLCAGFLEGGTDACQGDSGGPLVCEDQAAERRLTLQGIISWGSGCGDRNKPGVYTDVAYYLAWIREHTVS
Sequence of nOVA (P01012 whole entry): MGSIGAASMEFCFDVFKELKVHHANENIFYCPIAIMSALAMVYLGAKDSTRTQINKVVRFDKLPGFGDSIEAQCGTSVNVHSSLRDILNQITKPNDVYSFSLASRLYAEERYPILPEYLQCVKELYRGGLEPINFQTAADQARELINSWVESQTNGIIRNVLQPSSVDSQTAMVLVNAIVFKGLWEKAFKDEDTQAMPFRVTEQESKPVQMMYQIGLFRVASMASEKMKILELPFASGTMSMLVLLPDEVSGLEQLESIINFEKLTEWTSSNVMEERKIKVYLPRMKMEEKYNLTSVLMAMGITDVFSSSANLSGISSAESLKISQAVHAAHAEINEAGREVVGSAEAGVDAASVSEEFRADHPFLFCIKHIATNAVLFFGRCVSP

CCCCCCCCCCCCCCCCCC[N+](C)(C)CCCCCCCCCCCCCCCCCC.[Br-] [DDA, dimethyl dioctadecyl ammonium bromide]
activation of tPA by adjuvants (tPA): activators of tPA

Cc1ccc2c(c1)sc(-c1ccc(N(C)C)cc1)[n+]2C.[Cl-] [ThT, Thioflavin T]
inhibition of factor XII activation by DXS500k and 80× diluted plasma (factor XII [1]): fully inhibited
inhibition of the stimulatory activity of FP13 K157G on factor XII autoactivation (factor XII [1]): effectively inhibits

Endostatin
TNFα RNA expression compared to LPS (U937 monocytes; 100 μg/ml amyloid endostatin, 260 μg/ml Hb-AGE, 1 μg/ml LPS, normalized to 18S): approximately 30%

Etanercept [Native Etanercept]
tPA/plasminogen activating potential of protein/antigen preparation (tPA): some tPA activation

control Hb: control haemoglobin, not glycated
TNFα RNA expression relative to endostatin and Hb-AGE (U937 monocytes; 260 μg/ml): approximately threefold lower
TNFα RNA upregulation relative to values after amyloid endostatin or glycated Hb stimulation (U937 monocytes; 260 μg/ml): ≤ 30%

dextran-sulphate [DXS500k]
activation of factor XII in the presence of prekallikrein and high molecular weight kininogen (factor XII [2]): only then effectively activated
factor XII activation by DXS500k (factor XII [1]): only a stimulatory factor for factor XII activation when 80× diluted plasma is present
activation of tPA by adjuvants (tPA): activators of tPA

glucagon [native glucagon]
tPA/plasminogen activating potential of protein/antigen preparation (tPA): some tPA activating potential

ovalbumin [nOVA]
anti-nOVA titer after one week (nOVA): no titer was detected
titer of anti-nOVA antibodies (nOVA): 610
anti-OVA titer (OVA): can not elicit
anti-DOVA titer (DOVA): can not elicit
